Measurements as given in publication PMC2009770, “Thiophene analogues of the carcinogens benzidine and 4-aminobiphenyl: evaluation in vitro” (British Journal of Cancer, 1978).
Values belong to the compound of their own block, whether it stands above or below them.

How the values were obtained:
[1] = chemical stability to heat, light and air (monitored by TLC and m.p.); format: physicochemical; conditions: for stability to heat and light: monitored by TLC and m.p.; for behaviour of the solid in air and light: noted at preparation
BHK 21/C13 cells [2] = assay: parallel cell-toxicity assay (% survivors) of the transformation assay; format: cell-based
[3] = set-up: method as in Laham & Sinclair, 1969; conditions: rats; ref Laham & Sinclair, 1969; cited from earlier work
[4] = ref Ashby & Cook, 1974; cited from earlier work
[5] = test system: Salmonella strains TA 1535, TA 1538, TA 98 and TA 100; assay: Salmonella reverse-mutation assay of Ames; conditions: for response in the Ames assay (Fig. 1): strain TA 1538, presence of Aroclor 1254-induced rat liver S-9 mix
BHK 21/C13 cells [6] = assay: cell-transformation assay of Styles; conditions: presence of S-9 mix, 2 separate occasions (Fig. 2)

- stability to heat and light [1]: unstable to heat and light
- behaviour of the solid in air and light [1]: discolours quickly in air and light
SMILES: Cl.Nc1ccc(-c2ccccc2)s1 [XIV, 5-phenyl-2-thiophenamine hydrochloride]

- stability to heat and light [1]: unstable to heat and light
- behaviour of the solid in air and light [1]: sensitive to light and air
SMILES: CC(=O)Nc1ccc(-c2ccc(N)s2)cc1.Cl [XIII, 5-p-acetamidophenyl-2-thiophenamine hydrochloride]

- stability to heat and light [1]: stable
SMILES: CC(=O)Nc1ccc(-c2ccccc2)s1 [XVI, N-(5-phenylthiophen-2-yl)-acetamide]
- cytotoxicity (toxicity curve, % survivors) (BHK 21/C13 cells [2]): toxicity curve similar to that of benzidine

SMILES: Nc1ccc(-c2ccc([N+](=O)[O-])cc2)cc1 [4-nitro-4'-aminobiphenyl]
- bladder cancer induction [3]: induces bladder cancer

SMILES: Nc1ccc2c(c1)sc1ccccc12 [VII, 3-amino-dibenzothiophene]
- carcinogenicity [4]: carcinogenicity

SMILES: CC(=O)Nc1ccc(-c2ccc(NC(C)=O)s2)cc1 [XV, N-(5-p-acetamido-phenylthiophen-2-yl)acetamide]
- cytotoxicity (toxicity curve, % survivors) (BHK 21/C13 cells [2]): toxicity curve similar to that of benzidine
- stability to heat and light [1]: stable
- response in the Ames assay (Fig. 1) [5]: positive response

SMILES: Nc1ccc(-c2ccc(N)cc2)cc1 [XI, benzidine]
- bladder cancer induction [3]: induces bladder cancer
- response in the cell-transformation assay (BHK 21/C13 cells [6]): positive
- response in the Ames assay ([5]; 4 Salmonella strains, 3 separate occasions, presence and absence of Aroclor 1254-induced rat liver S-9 mix): positive on each occasion
- response in the Ames assay (Fig. 1) [5]: positive response
